ChEMBL document CHEMBL4665742 (J Nat Prod, 2020)
The source made the active and inactive calls. No cut-off for these calls is given here.

Experiments:
[1] = test system: SK-N-FI; assay: Antiproliferative activity against human SK-N-FI cells after 24 hrs; type: functional
[2] = test system: SK-N-AS; assay: Antiproliferative activity against human SK-N-AS cells after 24 hrs; type: functional
[3] = test system: SK-N-BE(2)-M17; assay: Antiproliferative activity against human SK-N-BE(2)-M17 cells after 24 hrs; type: functional
[4] = (§1) Antiproliferative activity against human Kelly cells after 24 hrs; type: functional; conditions: read-out: ED50 (the source's name)
[5] = test system: Kelly; assay: as §1; type: functional
[6] = test system: SK-N-FI; assay: Induction of apoptosis in human SK-N-FI cells assessed as PARP cleavage at 12.5 to 50 uM after 6 to 24 hrs by […]; type: functional, cell-based; conditions: dose microM 12.5-50, time hrs 6-24
[7] = test system: SK-N-AS; assay: Induction of apoptosis in human SK-N-AS cells assessed as PARP cleavage at 12.5 to 50 uM after 6 to 24 hrs by […]; type: functional, cell-based; conditions: dose microM 12.5-50, time hrs 6-24
[8] = test system: SK-N-BE(2)-M17; assay: Induction of apoptosis in human SK-N-BE(2)-M17 cells assessed as PARP cleavage at 12.5 to 50 uM after 6 to 24 hrs by […]; type: functional, cell-based; conditions: dose microM 12.5-50, time hrs 6-24
[9] = test system: Kelly; assay: Induction of apoptosis in human Kelly cells assessed as PARP cleavage at 12.5 to 50 uM after 6 to 24 hrs by […]; type: functional, cell-based; conditions: dose microM 12.5-50, time hrs 6-24
[10] = read-out: ED50 (the source's name)

Row | EC50 [1, 10] | EC50 [2, 10] | EC50 [3, 10] | Compound | Activity [1] | Activity [2] | Activity [3] | EC50 [4] | Activity [5] | Activity [6] | Activity [7] | Activity [8] | Activity [9]
1 |  |  |  | NCCCC(N)(C(=O)O)C(F)F (stereo not given) | Dose-dependent effect | Dose-dependent effect | Dose-dependent effect |  |  |  |  |  | 
2 | 18.1 µM | 19.5 µM | 10.3 µM | C=CCS[S+]([O-])CC=C (stereo not given) [ALLICIN] | Dose-dependent effect | Dose-dependent effect | Dose-dependent effect | 9.21 µM | Dose-dependent effect | Active | Active | Active | Active
